Values joined by “and” are separate entries in the source; they are usually repeats but may differ in a detail not shown here. Equal values may be shown once.

The test system of data set [1] is participants with narcolepsy. The data set can be described thus: Standardized on-road driving test, narcolepsy study. Format: in vivo, human. Conditions: for SDLP, observed mean (SD) / SDLP, median / SDLP, median difference (range), solriamfetol - placebo: day 7, 300 mg/day; for SDLP, median / SDLP, median difference (range), solriamfetol - placebo: mITT. On the procedure:
In this randomized, double-blind, placebo-controlled, crossover study, driving performance during a 1-hour on-road driving test was assessed at 2 hours and 6 hours post-dose following 7 days of treatment with solriamfetol (150 mg/day for 3 days, followed by 300 mg/day for 4 days) or placebo. The primary endpoint was standard deviation of lateral position (SDLP) at 2 hours post-dose.
At the end of each treatment period, a standardized on-road driving test (Verster & Roth, 2011) was conducted at 2 hours and at 6 hours after administration of drug or placebo (FIG. 1A). For each test (~1 hour in duration), participants drove a specially instrumented vehicle over a 100 km (~62 miles) primary highway circuit; they were accompanied by a licensed driving instructor with access to dual controls (brakes, clutch, accelerator). Participants were instructed to maintain both a steady lateral position between the delineated boundaries of the slower (right) traffic lane and a constant speed of 95 km/h (~59 mph). Participants were permitted to deviate from these instructions only to pass a slower vehicle, to respond to slower traffic ahead, or to exit and reenter the highway at the turnaround point (these events were removed for the purpose of data analysis by 2 experienced editors of the driving data). Vehicle speed and lateral distance to the left-lane line were continuously recorded, and the data stored on an onboard computer. The driving test could be stopped by the participant or by the accompanying driving instructor if considered it unsafe to continue.
The primary outcome assessment from the driving tests was standard deviation of lateral position (SDLP) in centimeters—a measure of “weaving” or road-tracking control (Ramaekers, 2017; Verster & Roth, 2011). […] Standard deviation of speed and number of lane drifts (defined as deviations>100 cm from the absolute lateral position within an 8-second window) were also determined from driving test data.
Change in SDLP was analyzed with a repeated mixed-effects analysis of variance (ANOVA).
Maximally selected McNemar symmetry analyses (Laska, Meisner, & Wanderling, 2012) were used to detect asymmetry in the distribution of the change in driving performance at 2 hours and 6 hours post-dose. Single McNemar tests were used to analyze the difference in proportions of participants with improved or impaired driving performance at relevant thresholds. Thresholds of 1.0, 1.5, 2.0, 2.5, 3.0, and 3.5 cm were used.
Additional secondary efficacy measures (standard deviation of speed, number of lane drifts, and THAT scores) were analyzed using a similar ANOVA method as described for SDLP. No multiplicity adjustments were made in the efficacy analyses for multiple endpoints, and all p values are therefore nominal.

The subject of data set [2] is participants with narcolepsy. The data set can be described thus: Safety / adverse events, narcolepsy study. The data set is classed as in vivo, human. How it is done: Safety assessments included a physical examination, ECG, clinical laboratory tests, and assessment of adverse events (AEs).
Demographic, narcolepsy history, and safety data were summarized for the safety population, which included all participants who received ≥1 dose of study drug. No formal statistical testing was performed on these parameters.

With `NC(=O)OC[C@H](N)Cc1ccccc1` [Solriamfetol, (R)-2-amino-3-phenylpropyl carbamate], the “maximum McNemar test, improved vs impaired driving” value in data set [1] (2 hours and 6 hours post-dose, thresholds 1.0 to 3.5 cm) was “did not show asymmetry”. Further, in data set [1] (2 hours post-dose), the “number of lane drifts, LS mean (SE)” value is 2.3 (0.8); the “number of lane drifts, LS mean difference vs placebo” value was −0.98; the “standard deviation of speed, LS mean (SE)” value was 2.8 (0.2) km/h; the “standard deviation of speed, LS mean difference vs placebo” value is given as −0.22 km/h. Moreover, in data set [1] (2 hours post-dose), the “SDLP, observed mean (SD)” value is 19.0 (3.6) cm and 18.97 cm; the “SDLP, median” value is 19.08 cm; the “SDLP, median difference (range), solriamfetol - placebo” value (from here on “SDLP, median difference (range)”) was −1.9 (−6.7 to 2.6) cm. In addition, the “SDLP, median difference (range)” value in data set [1] (2 hours post-dose, listed as solriamfetol) was −1.9 cm and −1.90 cm. In addition, the “participants with incomplete driving tests” value in data set [1] (2 hours post-dose, on solriamfetol) is on record as “Four”. For the same compound, in data set [1] (6 hours post-dose), the “number of lane drifts, LS mean (SE)” value is recorded as 3.6 (0.8); the “number of lane drifts, LS mean difference vs placebo” value is on record as −0.08; the “standard deviation of speed, LS mean (SE)” value is on record as 3.1 (0.2) km/h; the “standard deviation of speed, LS mean difference vs placebo” value is on record as −0.11 km/h. In data set [1] (6 hours post-dose), the “SDLP, observed mean (SD)” value is listed as 19.8 (3.5) cm; the “SDLP, median” value came to 19.59 cm; the “SDLP, median difference (range)” value was −1.1 (−12.1 to 6.0) cm. The “SDLP, median difference (range)” value in data set [1] (6 hours post-dose, listed as solriamfetol) is given as −1.1 cm. For the same compound, the “participants with incomplete driving tests” value in data set [1] (6 hours post-dose, on solriamfetol) was “Three”. In addition, the driving tests stopped in data set [1] (on solriamfetol, 7/44 tests) stood at 16%. The “participants with ≥1 incomplete test” value in data set [1] (while on solriamfetol, either time point) was determined as 5. The “serious or fatal TEAEs” value in data set [2] (in vivo) is recorded as “no serious or fatal TEAEs”. Besides, the “participants experiencing a TEAE, n (%)” value in data set [2] (while on solriamfetol) is listed as 17 (74%). The “discontinuation due to AEs” value in data set [2] (while taking solriamfetol) was “No participant discontinued”.
